Assay results taken from US20230085307A1, “PYRIDAZINONE COMPOUND AND HERBICIDE” (NISSAN CHEMICAL CORPORATION, priority 2019, published 2023).

Experiments:
chickweed [1] = test: Test Example 5: herbicidal effect by foliage application, plastic box (Table 20, symbol P); format: in vivo, common chickweed (Stellaria media); details: foliage application, AAH 320 g/ha, evaluated three weeks after application
Method in brief: (§1)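 Foliar spray test: emulsion formulation diluted in water to a set application rate, sprayed onto 14-day-old plants raised in diluvial soil at 25° C to 30° C under glass. Both herbicidal effect and crop effect rated visually three weeks later.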

rice flat sedge = test: Test Example 3: herbicidal effect by foliage application, Wagner pot (Table 18, symbol E); format: in vivo, rice flat sedge (Cyperus iria); details: amount of applied herbicide 320 g/ha
Method in brief: (§2)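 Plants were sown in alluvial soil held under 0.1–0.5 cm standing water and grown 14 days in a greenhouse at 25–30 °C. An emulsifiable formulation, water-diluted to the set dose, was then sprayed onto the foliage, and effects were scored three weeks later using previously defined criteria.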

southern crabgrass [2] = test: Test Example 5: herbicidal effect by foliage application, plastic box (Table 20, symbol F); format: in vivo, southern crabgrass (Digitaria ciliaris); details: foliage application, AAH 320 g/ha, evaluated three weeks after application
Method in brief: as §1

wild oat [3] = test: Test Example 4: herbicidal effect by soil treatment (Table 19, symbol I); format: in vivo, wild oat (Avena fatua); details: amount of applied herbicide 320 g/ha
Method in brief: (§3)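 Step 1: sow seeds in sterilized diluvial soil, cover ~1.5 cm. Step 2: spray diluted emulsion onto soil surface at predetermined rate. Step 3: greenhouse, 25–30° C, three weeks. Step 4: grade effect on each plant by earlier criteria.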

Chinese sprangletop = test: Test Example 3: herbicidal effect by foliage application, Wagner pot (Table 18, symbol D); format: in vivo, chinese sprangletop (Leptochloa chinensis); details: amount of applied herbicide 320 g/ha
Method in brief: as §2

windgrass [4] = test: Test Example 4: herbicidal effect by soil treatment (Table 19, symbol L); format: in vivo, windgrass (Apera spica-venti); details: amount of applied herbicide 320 g/ha
Method in brief: as §3

blackgrass [5] = test: Test Example 5: herbicidal effect by foliage application, plastic box (Table 20, symbol J); format: in vivo, blackgrass (Alopecurus myosuroides); details: foliage application, AAH 320 g/ha, evaluated three weeks after application
Method in brief: as §1

oval-leafed pondweed = test: Test Example 1: herbicidal activity, application before weed generation under submerged conditions (Table 16, symbol C); format: in vivo, oval-leafed pondweed (Monochoria vaginalis); details: 320 g/ha applied herbicide
Method in brief: (§4)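 Emulsion formulation, water-diluted to set dose, was put onto the flooded surface (4 cm depth, alluvial soil) the same day weeds were sown and 2.5-leaf rice transplanted. After 3 weeks at 25-30 °C under glass, each species was rated 0 (≤5% kill) to 5 (≥90% kill).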

barnyard grass [6] = test: Test Example 5: herbicidal effect by foliage application, plastic box (Table 20, symbol H); format: in vivo, barnyard grass (Echinochloa crus-galli); details: foliage application, AAH 320 g/ha, evaluated three weeks after application
Method in brief: as §1

chickweed [7] = test: Test Example 4: herbicidal effect by soil treatment (Table 19, symbol P); format: in vivo, common chickweed (Stellaria media); details: amount of applied herbicide 320 g/ha
Method in brief: as §3

Japanese bulrush = test: Test Example 1: herbicidal activity, application before weed generation under submerged conditions (Table 16, symbol B); format: in vivo, Japanese bulrush (Schoenoplectus juncoides); details: 320 g/ha applied herbicide
Method in brief: as §4

wild oat [8] = test: Test Example 5: herbicidal effect by foliage application, plastic box (Table 20, symbol I); format: in vivo, wild oat (Avena fatua); details: foliage application, AAH 320 g/ha, evaluated three weeks after application
Method in brief: as §1

Italian ryegrass [9] = test: Test Example 5: herbicidal effect by foliage application, plastic box (Table 20, symbol K); format: in vivo, Italian ryegrass (Lolium multiflorum); details: foliage application, AAH 320 g/ha, evaluated three weeks after application
Method in brief: as §1

barnyard grass [10] = test: Test Example 4: herbicidal effect by soil treatment (Table 19, symbol H); format: in vivo, barnyard grass (Echinochloa crus-galli); details: amount of applied herbicide 320 g/ha
Method in brief: as §3

redroot pigweed [11] = test: Test Example 4: herbicidal effect by soil treatment (Table 19, symbol N); format: in vivo, redroot pigweed (Amaranthus retroflexus); details: amount of applied herbicide 320 g/ha
Method in brief: as §3

green foxtail [12] = test: Test Example 5: herbicidal effect by foliage application, plastic box (Table 20, symbol G); format: in vivo, green foxtail (Setaria viridis); details: foliage application, AAH 320 g/ha, evaluated three weeks after application
Method in brief: as §1

blackgrass [13] = test: Test Example 4: herbicidal effect by soil treatment (Table 19, symbol J); format: in vivo, blackgrass (Alopecurus myosuroides); details: amount of applied herbicide 320 g/ha
Method in brief: as §3

persian speedwell [14] = test: Test Example 5: herbicidal effect by foliage application, plastic box (Table 20, symbol R); format: in vivo, Persian speedwell (Veronica persica); details: foliage application, AAH 320 g/ha, evaluated three weeks after application
Method in brief: as §1

false cleavers = test: Test Example 5: herbicidal effect by foliage application, plastic box (Table 20, symbol Q); format: in vivo, false cleavers (Galium spurium); details: foliage application, AAH 320 g/ha, evaluated three weeks after application
Method in brief: as §1

barnyard grass [15] = test: Test Example 3: herbicidal effect by foliage application, Wagner pot (Table 18, symbol H); format: in vivo, barnyard grass (Echinochloa crus-galli); details: amount of applied herbicide 320 g/ha
Method in brief: as §2

lambsquarters [16] = test: Test Example 4: herbicidal effect by soil treatment (Table 19, symbol O); format: in vivo, lambsquarters (Chenopodium album); details: amount of applied herbicide 320 g/ha
Method in brief: as §3

windgrass [17] = test: Test Example 5: herbicidal effect by foliage application, plastic box (Table 20, symbol L); format: in vivo, windgrass (Apera spica-venti); details: foliage application, AAH 320 g/ha, evaluated three weeks after application
Method in brief: as §1

lambsquarters [18] = test: Test Example 5: herbicidal effect by foliage application, plastic box (Table 20, symbol O); format: in vivo, lambsquarters (Chenopodium album); details: foliage application, AAH 320 g/ha, evaluated three weeks after application
Method in brief: as §1

southern crabgrass [19] = test: Test Example 4: herbicidal effect by soil treatment (Table 19, symbol F); format: in vivo, southern crabgrass (Digitaria ciliaris); details: amount of applied herbicide 320 g/ha
Method in brief: as §3

redroot pigweed [20] = test: Test Example 5: herbicidal effect by foliage application, plastic box (Table 20, symbol N); format: in vivo, redroot pigweed (Amaranthus retroflexus); details: foliage application, AAH 320 g/ha, evaluated three weeks after application
Method in brief: as §1

velvetleaf [21] = test: Test Example 4: herbicidal effect by soil treatment (Table 19, symbol M); format: in vivo, velvetleaf (Abutilon theophrasti); details: amount of applied herbicide 320 g/ha
Method in brief: as §3

green foxtail [22] = test: Test Example 4: herbicidal effect by soil treatment (Table 19, symbol G); format: in vivo, green foxtail (Setaria viridis); details: amount of applied herbicide 320 g/ha
Method in brief: as §3

Italian ryegrass [23] = test: Test Example 4: herbicidal effect by soil treatment (Table 19, symbol K); format: in vivo, Italian ryegrass (Lolium multiflorum); details: amount of applied herbicide 320 g/ha
Method in brief: as §3

velvetleaf [24] = test: Test Example 5: herbicidal effect by foliage application, plastic box (Table 20, symbol M); format: in vivo, velvetleaf (Abutilon theophrasti); details: foliage application, AAH 320 g/ha, evaluated three weeks after application
Method in brief: as §1

persian speedwell [25] = test: Test Example 4: herbicidal effect by soil treatment (Table 19, symbol R); format: in vivo, Persian speedwell (Veronica persica); details: amount of applied herbicide 320 g/ha
Method in brief: as §3

late watergrass = test: Test Example 1: herbicidal activity, application before weed generation under submerged conditions (Table 16, symbol A); format: in vivo, late watergrass (Echinochloa oryzicola); details: 320 g/ha applied herbicide
Method in brief: as §4

| Structure (SMILES) | P: chickweed, herbicidal effect (criteria 0-5) (chickweed [1]) | herbicidal effect on E: rice flat sedge (rice flat sedge) | F: southern crabgrass, herbicidal effect (criteria 0-5) (southern crabgrass [2]) | herbicidal effect on I: wild oat (wild oat [3]) | herbicidal effect on D: Chinese sprangletop (Chinese sprangletop) | herbicidal effect on L: windgrass (windgrass [4]) | J: blackgrass, herbicidal effect (criteria 0-5) (blackgrass [5]) | Herbicidal effect on C: oval-leafed pondweed (grade 0-5) (oval-leafed pondweed) | H: barnyard grass, herbicidal effect (criteria 0-5) (barnyard grass [6]) | herbicidal effect on P: chickweed (chickweed [7]) | Herbicidal effect on B: Japanese bulrush (grade 0-5) (Japanese bulrush) | I: wild oat, herbicidal effect (criteria 0-5) (wild oat [8]) | K: Italian ryegrass, herbicidal effect (criteria 0-5) (Italian ryegrass [9]) | herbicidal effect on H: barnyard grass (barnyard grass [10]) | herbicidal effect on N: redroot pigweed (redroot pigweed [11]) | G: green foxtail, herbicidal effect (criteria 0-5) (green foxtail [12]) | herbicidal effect on J: blackgrass (blackgrass [13]) | R: persian speedwell, herbicidal effect (criteria 0-5) (persian speedwell [14]) | Q: false cleavers, herbicidal effect (criteria 0-5) (false cleavers) | herbicidal effect on H: barnyard grass (barnyard grass [15]) | further results |
| --- | --- | --- | --- | --- | --- | --- | --- | --- | --- | --- | --- | --- | --- | --- | --- | --- | --- | --- | --- | --- | --- |
| Cc1nn(C)c(=O)c(-c2c(-c3ccc(OC(F)F)cc3)sc3ccc(F)cc23)c1OS(=O)(=O)c1ccc(Cl)cc1 [2-311] | 5 (Herbicidal rate of 90% or more (almost completely withered)) | 4 (Herbicidal rate of 70% or more and less than 90%) | 2 (Herbicidal rate of 20% or more and less than 40%) | 0 (Herbicidal rate of 5% or less (almost no effect)) | 2 (Herbicidal rate of 20% or more and less than 40%) | 0 (Herbicidal rate of 5% or less (almost no effect)) | 3 (Herbicidal rate of 40% or more and less than 70%) | 3 (Herbicidal rate of 40% or more and less than 70%) | 5 (Herbicidal rate of 90% or more (almost completely withered)) | 3 (Herbicidal rate of 40% or more and less than 70%) | 3 (Herbicidal rate of 40% or more and less than 70%) | 3 (Herbicidal rate of 40% or more and less than 70%) | 5 (Herbicidal rate of 90% or more (almost completely withered)) | 0 (Herbicidal rate of 5% or less (almost no effect)) | 4 (Herbicidal rate of 70% or more and less than 90%) | 5 (Herbicidal rate of 90% or more (almost completely withered)) | 0 (Herbicidal rate of 5% or less (almost no effect)) | 5 (Herbicidal rate of 90% or more (almost completely withered)) | 5 (Herbicidal rate of 90% or more (almost completely withered)) | 5 (Herbicidal rate of 90% or more (almost completely withered)) | herbicidal effect on O: lambsquarters (lambsquarters [16]): 5 (Herbicidal rate of 90% or more (almost completely withered)); L: windgrass, herbicidal effect (criteria 0-5) (windgrass [17]): 4 (Herbicidal rate of 70% or more and less than 90%); O: lambsquarters, herbicidal effect (criteria 0-5) (lambsquarters [18]): 5 (Herbicidal rate of 90% or more (almost completely withered)); herbicidal effect on F: southern crabgrass (southern crabgrass [19]): 0 (Herbicidal rate of 5% or less (almost no effect)); N: redroot pigweed, herbicidal effect (criteria 0-5) (redroot pigweed [20]): 5 (Herbicidal rate of 90% or more (almost completely withered)); herbicidal effect on M: velvetleaf (velvetleaf [21]): 2 (Herbicidal rate of 20% or more and less than 40%); herbicidal effect on G: green foxtail (green foxtail [22]): 0 (Herbicidal rate of 5% or less (almost no effect)); herbicidal effect on K: Italian ryegrass (Italian ryegrass [23]): 4 (Herbicidal rate of 70% or more and less than 90%); M: velvetleaf, herbicidal effect (criteria 0-5) (velvetleaf [24]): 5 (Herbicidal rate of 90% or more (almost completely withered)); herbicidal effect on R: persian speedwell (persian speedwell [25]): 4 (Herbicidal rate of 70% or more and less than 90%); Herbicidal effect on A: late watergrass (grade 0-5) (late watergrass): 3 (Herbicidal rate of 40% or more and less than 70%) |
| Cc1ccc(S(=O)(=O)Oc2c(C)nn(C)c(=O)c2-c2c(-c3ccc(OC(F)F)cc3)sc3ccc(F)cc23)cc1 [2-312] | 5 (Herbicidal rate of 90% or more (almost completely withered)) | 5 (Herbicidal rate of 90% or more (almost completely withered)) | 1 (Herbicidal rate of 5% or more and less than 20%) | 0 (Herbicidal rate of 5% or less (almost no effect)) | 3 (Herbicidal rate of 40% or more and less than 70%) | 0 (Herbicidal rate of 5% or less (almost no effect)) | 4 (Herbicidal rate of 70% or more and less than 90%) | 0 (Herbicidal rate of 5% or less (almost no effect)) | 5 (Herbicidal rate of 90% or more (almost completely withered)) | 5 (Herbicidal rate of 90% or more (almost completely withered)) | 3 (Herbicidal rate of 40% or more and less than 70%) | 3 (Herbicidal rate of 40% or more and less than 70%) | 5 (Herbicidal rate of 90% or more (almost completely withered)) | 1 (Herbicidal rate of 5% or more and less than 20%) | 5 (Herbicidal rate of 90% or more (almost completely withered)) | 4 (Herbicidal rate of 70% or more and less than 90%) | 3 (Herbicidal rate of 40% or more and less than 70%) | 5 (Herbicidal rate of 90% or more (almost completely withered)) | 5 (Herbicidal rate of 90% or more (almost completely withered)) | 5 (Herbicidal rate of 90% or more (almost completely withered)) | herbicidal effect on O: lambsquarters (lambsquarters [16]): 4 (Herbicidal rate of 70% or more and less than 90%); L: windgrass, herbicidal effect (criteria 0-5) (windgrass [17]): 4 (Herbicidal rate of 70% or more and less than 90%); O: lambsquarters, herbicidal effect (criteria 0-5) (lambsquarters [18]): 5 (Herbicidal rate of 90% or more (almost completely withered)); herbicidal effect on F: southern crabgrass (southern crabgrass [19]): 0 (Herbicidal rate of 5% or less (almost no effect)); N: redroot pigweed, herbicidal effect (criteria 0-5) (redroot pigweed [20]): 5 (Herbicidal rate of 90% or more (almost completely withered)); herbicidal effect on M: velvetleaf (velvetleaf [21]): 3 (Herbicidal rate of 40% or more and less than 70%); herbicidal effect on G: green foxtail (green foxtail [22]): 0 (Herbicidal rate of 5% or less (almost no effect)); herbicidal effect on K: Italian ryegrass (Italian ryegrass [23]): 5 (Herbicidal rate of 90% or more (almost completely withered)); M: velvetleaf, herbicidal effect (criteria 0-5) (velvetleaf [24]): 5 (Herbicidal rate of 90% or more (almost completely withered)); herbicidal effect on R: persian speedwell (persian speedwell [25]): 5 (Herbicidal rate of 90% or more (almost completely withered)); Herbicidal effect on A: late watergrass (grade 0-5) (late watergrass): 2 (Herbicidal rate of 20% or more and less than 40%) |
